Laboratory results reported in ChEMBL document CHEMBL1201862, “PubChem BioAssay data set” (2004).
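These data come from cells grown in 96-well plates and exposed to compound for 48 hours at five concentrations. Here, GI50 denotes the concentration required for 50% inhibition of growth.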 Calls of active or inactive are those of the source. Cut-off read from the data, not from the text of the source: active = GI50 up to about 1.1 µM and inactive = higher.

Key:
Assay in all cases: NCI-60 cell line screen, 48 h
K562 = tested on: K562
NCI-H23 = tested on: NCI-H23
OVCAR-5 = tested on: OVCAR-5
NCI-H460 = tested on: NCI-H460
TK-10 = tested on: TK-10
UACC-62 = tested on: UACC-62
SR = tested on: SR
SK-MEL-28 = tested on: SK-MEL-28
EKVX = tested on: EKVX
MDA-N = tested on: MDA-N
M14 = tested on: M14
MCF7 = tested on: MCF7
RPMI-8226 = tested on: RPMI-8226
DU-145 = tested on: DU-145
MOLT-4 = tested on: MOLT-4
KM12 = tested on: KM12
SK-OV-3 = tested on: SK-OV-3
OVCAR-8 = tested on: OVCAR-8
CAKI-1 = tested on: CAKI-1
U-251 = tested on: U-251
COLO 205 = tested on: COLO 205
HCT-116 = tested on: HCT-116
LOX IMVI = tested on: LOX IMVI
HOP-92 = tested on: HOP-92
HL-60 = tested on: HL-60
SF-295 = tested on: SF-295
ACHN = tested on: ACHN
HCT-15 = tested on: HCT-15
OVCAR-3 = tested on: OVCAR-3
UO-31 = tested on: UO-31
T47D = tested on: T47D
NCI-H226 = tested on: NCI-H226
SW-620 = tested on: SW-620
SF-539 = tested on: SF-539
NCI-H522 = tested on: NCI-H522
SF-268 = tested on: SF-268
UACC-257 = tested on: UACC-257
MDA-MB-435 = tested on: MDA-MB-435
A549 = tested on: A549
PC-3 = tested on: PC-3
SN12C = tested on: SN12C
HOP-62 = tested on: HOP-62
MDA-MB-231 = tested on: MDA-MB-231
CCRF-CEM = tested on: CCRF-CEM
NCI/ADR-RES = tested on: NCI/ADR-RES
IGROV-1 = tested on: IGROV-1
RXF 393 = tested on: RXF 393
SK-MEL-5 = tested on: SK-MEL-5
786-0 = tested on: 786-0
SNB-75 = tested on: SNB-75
Hs-578T = tested on: Hs-578T
HT-29 = tested on: HT-29
HCC 2998 = tested on: HCC 2998
A498 = tested on: A498
SK-MEL-2 = tested on: SK-MEL-2
OVCAR-4 = tested on: OVCAR-4
SNB-19 = tested on: SNB-19
Malme-3M = tested on: Malme-3M

Measured: GI50

O=[N+]([O-])/C=C1\COCc2cc3c(cc21)OCO3
19.1 µM: HCT-15
inactive: K562 27.2 µM | NCI-H23 12.1 µM | OVCAR-5 19.9 µM | NCI-H460 30.9 µM | TK-10 22.8 µM | UACC-62 21.1 µM | SR 18.9 µM | SK-MEL-28 17.5 µM | EKVX 28.1 µM | MDA-N 18.9 µM | M14 13.4 µM | MCF7 18.5 µM | RPMI-8226 21.7 µM | DU-145 19.1 µM | MOLT-4 24.5 µM | KM12 15.1 µM | SK-OV-3 42.7 µM | OVCAR-8 27.8 µM | CAKI-1 13 µM | U-251 18.6 µM | COLO 205 23.1 µM | HCT-116 21.2 µM | LOX IMVI 27.2 µM | HOP-92 30.7 µM | HL-60 25.2 µM | SF-295 44 µM | ACHN 20.8 µM | OVCAR-3 16.8 µM | UO-31 18.9 µM | T47D 15.9 µM | NCI-H226 34 µM | SW-620 22.1 µM | SF-539 26.4 µM | NCI-H522 20.7 µM | SF-268 27.2 µM | UACC-257 19.7 µM | MDA-MB-435 14.5 µM | A549 22 µM | PC-3 12.3 µM | SN12C 22.5 µM | HOP-62 38.9 µM | MDA-MB-231 14.4 µM | CCRF-CEM 10.6 µM | NCI/ADR-RES 18 µM | IGROV-1 35.6 µM | RXF 393 17.9 µM | SK-MEL-5 19.6 µM | 786-0 19.3 µM | SNB-75 16.5 µM | Hs-578T 26.9 µM | HT-29 25.1 µM | HCC 2998 18 µM | A498 18.8 µM

COC(=O)C1(CCCCCBr)CCCCCCCCCCC1=O (stereo unspecified)
38.8 µM: HCT-15
inactive: K562 32.9 µM | NCI-H23 45.9 µM | OVCAR-5 37.3 µM | NCI-H460 58.6 µM | TK-10 > 100 µM | SK-MEL-2 28.9 µM | UACC-62 79.6 µM | SR 33.5 µM | SK-MEL-28 35.3 µM | EKVX 78.9 µM | MDA-N 29.2 µM | M14 40.2 µM | MCF7 15.7 µM | OVCAR-4 19.8 µM | DU-145 88.5 µM | MOLT-4 17.9 µM | KM12 46.5 µM | SK-OV-3 > 100 µM | OVCAR-8 54.2 µM | CAKI-1 25.5 µM | SNB-19 > 100 µM | U-251 28.3 µM | COLO 205 31.8 µM | HCT-116 26.4 µM | LOX IMVI 27.3 µM | HOP-92 58.7 µM | HL-60 30 µM | SF-295 35.6 µM | ACHN 40.7 µM | OVCAR-3 28.4 µM | UO-31 16.7 µM | T47D 32.8 µM | NCI-H226 23.6 µM | SW-620 72.4 µM | SF-539 90.2 µM | NCI-H522 20.5 µM | SF-268 51.6 µM | UACC-257 23.7 µM | MDA-MB-435 37.6 µM | A549 31.3 µM | PC-3 44.1 µM | Malme-3M 19.7 µM | SN12C 37.6 µM | HOP-62 > 100 µM | MDA-MB-231 36.6 µM | CCRF-CEM 22.6 µM | NCI/ADR-RES 37.2 µM | IGROV-1 30.5 µM | RXF 393 23.4 µM | SK-MEL-5 16.3 µM | 786-0 30.3 µM | Hs-578T > 100 µM | HT-29 42.2 µM | HCC 2998 41.1 µM | A498 28.3 µM

O=C1OC(c2ccccc2)=N/C1=C\c1cn[nH]n1
> 100 µM: HCT-15
inactive: K562 > 100 µM | NCI-H23 > 100 µM | OVCAR-5 > 100 µM | NCI-H460 > 100 µM | TK-10 > 100 µM | SK-MEL-2 > 100 µM | UACC-62 > 100 µM | SR 59.6 µM | SK-MEL-28 > 100 µM | EKVX > 100 µM | MDA-N > 100 µM | M14 > 100 µM | MCF7 > 100 µM | OVCAR-4 > 100 µM | RPMI-8226 > 100 µM | DU-145 > 100 µM | MOLT-4 > 100 µM | KM12 > 100 µM | SK-OV-3 > 100 µM | OVCAR-8 > 100 µM | CAKI-1 > 100 µM | SNB-19 > 100 µM | U-251 > 100 µM | COLO 205 > 100 µM | HCT-116 > 100 µM | LOX IMVI > 100 µM | HOP-92 > 100 µM | HL-60 > 100 µM | SF-295 > 100 µM | ACHN > 100 µM | OVCAR-3 > 100 µM | UO-31 > 100 µM | T47D > 100 µM | NCI-H226 > 100 µM | SW-620 > 100 µM | SF-539 70.1 µM | SF-268 > 100 µM | UACC-257 > 100 µM | MDA-MB-435 > 100 µM | A549 > 100 µM | PC-3 > 100 µM | Malme-3M 83.4 µM | SN12C > 100 µM | HOP-62 > 100 µM | MDA-MB-231 > 100 µM | CCRF-CEM 97.1 µM | NCI/ADR-RES > 100 µM | IGROV-1 > 100 µM | RXF 393 > 100 µM | 786-0 > 100 µM | SNB-75 > 100 µM | Hs-578T > 100 µM | HT-29 > 100 µM | HCC 2998 > 100 µM | A498 > 100 µM
